# Results as given in PubChem BioAssay (NCI).
# Where “and” joins values, the source holds several entries; their conditions need not be identical. Equal entries are not always repeated.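 48-hour exposure; five concentrations; linearly interpolated endpoints. GI50 = concentration required for 50% inhibition of growth. TGI: total growth inhibition.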
# Legend:
# Assay in all cases: DTP human tumour cell line panel, 48 h
# SF-539 CNS = test system: SF-539 CNS
# K-562 leukemia = test system: K-562 leukemia
# MDA-MB-435 = test system: MDA-MB-435
# KM12 colon = test system: KM12 colon
# HCT-15 colon = test system: HCT-15 colon
# A498 renal = test system: A498 renal
# ACHN renal = test system: ACHN renal
# BT-549 breast = test system: BT-549 breast
# RXF 393 renal = test system: RXF 393 renal
# SNB-19 CNS = test system: SNB-19 CNS
# 786-0 renal = test system: 786-0 renal
# OVCAR-8 ovarian = test system: OVCAR-8 ovarian
# OVCAR-3 ovarian = test system: OVCAR-3 ovarian
# U251 CNS = test system: U251 CNS
# HOP-92 NSCLC = test system: HOP-92 NSCLC
# MALME-3M melanoma = test system: MALME-3M melanoma
# SK-MEL-2 melanoma = test system: SK-MEL-2 melanoma
# HS 578T breast = test system: HS 578T breast
# OVCAR-5 ovarian = test system: OVCAR-5 ovarian
# SNB-75 CNS = test system: SNB-75 CNS
# NCI/ADR-RES ovarian = test system: NCI/ADR-RES ovarian
# RPMI-8226 leukemia = test system: RPMI-8226 leukemia
# HCT-116 colon = test system: HCT-116 colon
# LOX IMVI melanoma = test system: LOX IMVI melanoma
# NCI-H226 lung = test system: NCI-H226 lung
# SN12C renal = test system: SN12C renal
# MOLT-4 leukemia = test system: MOLT-4 leukemia
# PC-3 prostate = test system: PC-3 prostate
# DU-145 prostate = test system: DU-145 prostate
# MCF7 breast = test system: MCF7 breast
# SW-620 colon = test system: SW-620 colon
# HL-60(TB) leukemia = test system: HL-60(TB) leukemia
# SF-295 CNS = test system: SF-295 CNS
# CAKI-1 renal = test system: CAKI-1 renal
# HOP-62 NSCLC = test system: HOP-62 NSCLC
# EKVX NSCLC = test system: EKVX NSCLC
# T-47D breast = test system: T-47D breast
# SK-MEL-5 melanoma = test system: SK-MEL-5 melanoma
# SK-MEL-28 melanoma = test system: SK-MEL-28 melanoma
# SK-OV-3 ovarian = test system: SK-OV-3 ovarian
# TK-10 renal = test system: TK-10 renal
# IGROV1 ovarian = test system: IGROV1 ovarian
# UO-31 renal = test system: UO-31 renal
# UACC-257 melanoma = test system: UACC-257 melanoma
# UACC-62 melanoma = test system: UACC-62 melanoma
# MDA-MB-231 breast = test system: MDA-MB-231 breast
# SF-268 CNS = test system: SF-268 CNS
# COLO 205 colon = test system: COLO 205 colon
# A549 NSCLC = test system: A549 NSCLC
# NCI-H460 lung = test system: NCI-H460 lung
# CCRF-CEM leukemia = test system: CCRF-CEM leukemia
# HT29 colon = test system: HT29 colon
# M14 melanoma = test system: M14 melanoma
# NCI-H23 lung = test system: NCI-H23 lung
# OVCAR-4 ovarian = test system: OVCAR-4 ovarian
# NCI-H522 lung = test system: NCI-H522 lung
# HCC-2998 colon = test system: HCC-2998 colon
smiles,measurement,setting,value
O=c1cc(-c2ccccc2)[nH]c2ccc(N3CCCC3)cc12,TGI,SF-539 CNS,70.3 nM
same,TGI,K-562 leukemia,> 100 µM
same,TGI,MDA-MB-435,< 0.0114 µM
same,TGI,KM12 colon,198 nM
same,TGI,HCT-15 colon,> 100 µM
same,TGI,A498 renal,> 100000 nM
same,TGI,ACHN renal,> 100 µM
same,TGI,BT-549 breast,> 100 µM
same,TGI,RXF 393 renal,> 100 µM
same,TGI,SNB-19 CNS,> 100 µM
same,TGI,786-0 renal,> 52.4 µM
same,TGI,OVCAR-8 ovarian,> 57.9 µM
same,TGI,OVCAR-3 ovarian,26100 nM
same,TGI,U251 CNS,> 46900 nM
same,TGI,HOP-92 NSCLC,> 100000 nM
same,TGI,MALME-3M melanoma,> 100000 nM
same,TGI,SK-MEL-2 melanoma,> 100 µM
same,TGI,HS 578T breast,> 100 µM
same,TGI,OVCAR-5 ovarian,> 100 µM
same,TGI,SNB-75 CNS,> 100000 nM
same,TGI,NCI/ADR-RES ovarian,> 100 µM
same,TGI,RPMI-8226 leukemia,> 100000 nM
same,TGI,HCT-116 colon,> 34.8 µM
same,TGI,LOX IMVI melanoma,> 100 µM
same,TGI,NCI-H226 lung,0.0761 µM
same,TGI,SN12C renal,> 100 µM
same,TGI,MOLT-4 leukemia,> 100 µM
same,TGI,PC-3 prostate,> 100000 nM
same,TGI,DU-145 prostate,> 100 µM
same,TGI,MCF7 breast,> 100 µM
same,TGI,SW-620 colon,> 100 µM
same,TGI,HL-60(TB) leukemia,< 34.7 nM
same,TGI,SF-295 CNS,20.1 nM
same,TGI,CAKI-1 renal,> 100000 nM
same,TGI,HOP-62 NSCLC,> 74.2 µM
same,TGI,EKVX NSCLC,> 100 µM
same,TGI,T-47D breast,> 100 µM
same,TGI,SK-MEL-5 melanoma,2.16 µM
same,TGI,SK-MEL-28 melanoma,> 100 µM
same,TGI,SK-OV-3 ovarian,> 100000 nM
same,TGI,TK-10 renal,> 100 µM
same,TGI,IGROV1 ovarian,> 100 µM
same,TGI,UO-31 renal,> 100 µM
same,TGI,UACC-257 melanoma,> 100 µM
same,TGI,UACC-62 melanoma,85.2 µM
same,TGI,MDA-MB-231 breast,> 100 µM
same,TGI,SF-268 CNS,> 100000 nM
C#CC(F)(F)[C@]1(O)CC[C@H]2[C@@H]3CCC4=CC(=O)CCC4=C3[C@@H](c3ccc(C4CC4)cc3)C[C@@]21C,GI50,SF-539 CNS,20.7 nM and < 15.5 nM
same,TGI,SF-539 CNS,45.8 nM and 31.7 nM
same,GI50,K-562 leukemia,815 nM and 2210 nM
same,TGI,K-562 leukemia,11.7 µM and > 100 µM
same,GI50,COLO 205 colon,1790 nM and 1220 nM
same,TGI,COLO 205 colon,11.2 µM and 3.59 µM
same,GI50,MDA-MB-435,4.59 µM and 2.25 µM
same,TGI,MDA-MB-435,23.9 µM and 10.3 µM
same,GI50,KM12 colon,21.4 nM and < 17.7 nM
same,GI50,HCT-15 colon,1550 nM and 1810 nM
same,TGI,HCT-15 colon,> 100 µM
same,GI50,A498 renal,495 nM and 593 nM
same,TGI,A498 renal,1930 nM and 1740 nM
same,GI50,A549 NSCLC,400 nM and 470 nM
same,TGI,A549 NSCLC,3.91 µM and 7.22 µM
same,GI50,BT-549 breast,1160 nM and 1280 nM
same,TGI,BT-549 breast,2.94 µM and 3.57 µM
same,TGI,RXF 393 renal,2.92 µM and 7 µM
same,GI50,SNB-19 CNS,1440 nM and 3910 nM
same,GI50,786-0 renal,< 10 nM
same,TGI,786-0 renal,< 0.0106 µM
same,GI50,OVCAR-3 ovarian,15.9 nM and 24.5 nM
same,TGI,OVCAR-3 ovarian,32.6 nM and 169 nM
same,GI50,U251 CNS,48 nM and 395 nM
same,TGI,U251 CNS,234 nM and 2200 nM
same,GI50,HOP-92 NSCLC,16.7 nM and < 16.1 nM
same,TGI,HOP-92 NSCLC,37.4 nM and < 25.3 nM
same,GI50,MALME-3M melanoma,43.6 nM and < 15.1 nM
same,TGI,MALME-3M melanoma,94.6 nM and < 28 nM
same,GI50,SK-MEL-2 melanoma,2650 nM and 2220 nM
same,TGI,SK-MEL-2 melanoma,7.74 µM and 6.01 µM
same,GI50,HS 578T breast,205 nM and 1320 nM
same,TGI,HS 578T breast,2.63 µM and 7.34 µM
same,GI50,NCI-H460 lung,2380 nM and 2280 nM
same,TGI,NCI-H460 lung,9.9 µM and 9.67 µM
same,GI50,OVCAR-5 ovarian,271 nM and 1280 nM
same,TGI,OVCAR-5 ovarian,2.27 µM and 5.79 µM
same,GI50,SNB-75 CNS,147 nM
same,TGI,SNB-75 CNS,437 nM
same,GI50,NCI/ADR-RES ovarian,83 nM and 164 nM
same,TGI,NCI/ADR-RES ovarian,2.82 µM and 5.55 µM
same,GI50,RPMI-8226 leukemia,139 nM and 125 nM
same,TGI,RPMI-8226 leukemia,1000 nM and 915 nM
same,GI50,HCT-116 colon,3.19 µM and 2.9 µM
same,TGI,HCT-116 colon,13.2 µM and 19 µM
same,GI50,LOX IMVI melanoma,< 10 nM
same,TGI,LOX IMVI melanoma,< 0.01 µM
same,GI50,NCI-H226 lung,7.79 µM and 3.15 µM
same,TGI,NCI-H226 lung,72.9 µM and 11.5 µM
same,GI50,CCRF-CEM leukemia,17 nM and < 10 nM
same,TGI,CCRF-CEM leukemia,43 nM and < 13.9 nM
same,GI50,SN12C renal,933 nM and 2450 nM
same,TGI,SN12C renal,8.69 µM and 10.5 µM
same,GI50,MOLT-4 leukemia,1160 nM and 1620 nM
same,TGI,MOLT-4 leukemia,4 µM and 5 µM
same,GI50,PC-3 prostate,44.1 nM and 414 nM
same,TGI,PC-3 prostate,313 nM and 2740 nM
same,GI50,DU-145 prostate,814 nM and 2130 nM
same,TGI,DU-145 prostate,6.55 µM and 15.4 µM
same,GI50,MCF7 breast,1560 nM and 1160 nM
same,TGI,MCF7 breast,> 100 µM
same,GI50,SW-620 colon,1250 nM and 2360 nM
same,TGI,SW-620 colon,7.44 µM and 12.4 µM
same,GI50,HT29 colon,42.8 nM and < 20 nM
same,TGI,HT29 colon,171 nM and 184 nM
same,GI50,M14 melanoma,844 nM and 2780 nM
same,TGI,M14 melanoma,2.92 µM and 18.8 µM
same,GI50,HL-60(TB) leukemia,< 10 nM
same,TGI,HL-60(TB) leukemia,21.6 nM and < 10 nM
same,GI50,SF-295 CNS,31.9 nM and < 10 nM
same,TGI,SF-295 CNS,82.1 nM and < 10 nM
same,GI50,CAKI-1 renal,103 nM and < 17.1 nM
same,TGI,CAKI-1 renal,633 nM and 74.5 nM
same,GI50,HOP-62 NSCLC,367 nM and 201 nM
same,TGI,HOP-62 NSCLC,5.44 µM and 1.72 µM
same,GI50,NCI-H23 lung,24.2 nM and < 15.1 nM
same,TGI,NCI-H23 lung,268 nM and < 41 nM
same,GI50,OVCAR-4 ovarian,1010 nM
same,TGI,OVCAR-4 ovarian,> 100 µM
same,GI50,T-47D breast,< 10 nM
same,TGI,T-47D breast,59 µM and 8.4 µM
same,GI50,SK-MEL-5 melanoma,4.05 µM and 3.05 µM
same,TGI,SK-MEL-5 melanoma,10.7 µM and 8.41 µM
same,GI50,SK-MEL-28 melanoma,5.33 µM and 2.31 µM
same,TGI,SK-MEL-28 melanoma,17.9 µM and 5.96 µM
same,GI50,SK-OV-3 ovarian,162 nM and 69.5 nM
same,TGI,SK-OV-3 ovarian,312 nM and 215 nM
same,GI50,TK-10 renal,4.55 µM and 2.24 µM
same,TGI,TK-10 renal,20.9 µM and 8.33 µM
same,GI50,IGROV1 ovarian,< 11.4 nM
same,TGI,IGROV1 ovarian,< 0.0155 µM
same,GI50,NCI-H522 lung,< 10 nM
same,TGI,NCI-H522 lung,17.4 nM and < 10 nM
same,GI50,UO-31 renal,< 10 nM
same,TGI,UO-31 renal,< 0.01 µM
same,GI50,UACC-257 melanoma,7.72 µM and 6.45 µM
same,TGI,UACC-257 melanoma,71.8 µM and > 100 µM
same,GI50,UACC-62 melanoma,762 nM and 1420 nM
same,TGI,UACC-62 melanoma,2.36 µM and 4.22 µM
same,GI50,HCC-2998 colon,5.6 µM and 3.72 µM
same,TGI,HCC-2998 colon,29.9 µM and > 65.6 µM
same,GI50,SF-268 CNS,54.1 nM and 97.1 nM
same,TGI,SF-268 CNS,183 nM and 322 nM
